The subject of assay [1] is neuron. As to the kind of experiment: N-AS generation in primary cultured cells (LC-MS/MS). Type of assay: cell-based, C57BL/6 mice. As to conditions: replicates. Also noted: N-AS quantification (Fig 3a): dose or concentration left out as unconfirmed. The procedure:
(§1) Reactions were quenched by adding equal volume of cold methanol. A 100 μl aliquot of the reaction mixture was mixed with 30 μl of distilled water containing 5 ng ml^−1 of furosemide (internal standard) for 1 min and vigorously mixed with […] of ethyl acetate for 20 min. After centrifugation at 16,000×g for 10 min, the mixtures were kept for 2 h for freezing aqueous phase. The upper ethyl acetate layer was transferred to a clean tube and evaporated to dryness under a gentle stream of nitrogen. Then, the dried extract was reconstituted in 100 µl of mobile phase and 10 µl aliquot of the solution was injected into an Agilent 6470 Triple Quad LC–MS/MS system (Agilent, Wilmington, DE) coupled with an Agilent 1260 HPLC system. Separation was performed on a Synergy Polar RP column (4 μm particle size, 2.0 mm × 150 mm, Phenomenex) using a mobile phase that consisted of methanol and water (95:5, v/v) with 0.1% formic acid at a flow rate of 0.2 ml min^−1. Quantification was carried out using multiple reaction monitoring (MRM) at m/z 340.3→263.3 for N-AS and m/z 328.9→284.8 for furosemide (internal standard) in negative ionization mode and collision energy of 20 eV. […] Also, to confirm N-AS generation in neurons, microglia, and astrocytes, these cells were treated with Aβ, and sonicated in neuronal and glial culture medium. […] To evaluate N-AS in microglia and neurons in vivo, the cells were isolated from WT mice, APP/PS1 mice and APP/PS1 mice treated with N-AS at 9 months of age. The cells were sonicated and resuspended in glial and neuronal culture medium, respectively. A 100 μl aliquot of each cell lysate were used for the determination of N-AS using a method previously described.
(§2) To confirm the generation and roles of N-AS in neurons, cells from E18 C57BL/6 mice were prepared as previously described. Cortices were dissected and then dissociated followed by incubation in papain (Worthington) at 37 °C for 15 min. […] Aβ 1–42 (10 μM, 24 h, Invitrogen, 03112) was exposed to neurons and the cells were analyzed for the generation and roles of N-AS. […]

The test system of assay [2] is immortalized human microglia. Kind of assay: N-AS generation in human microglia (LC-MS/MS, Supplementary Fig 6a). Format: cell-based. The procedure:
as §1, §2

Values joined by “and” are separate entries in the source; they are usually repeats but may differ in a detail not shown here. Equal entries are not always repeated.

Consider 2 compounds from paper PMC7217877, “N-AS-triggered SPMs are direct regulators of microglia in a model of Alzheimer’s disease” (Nature Communications, 2020).

On to `CC(=O)SCCNC(=O)CCNC(=O)[C@H](O)C(C)(C)COP(=O)(O)OP(=O)(O)OC[C@H]1O[C@@H](n2cnc3c(N)ncnc32)[C@H](O)[C@@H]1OP(=O)(O)O` [Acetyl-CoA, acetyl-CoA], for which, in assay [1] (Ab + supplement), the “N-AS quantification (Fig 3g)” value is 0.4129 and 0.455 and 0.2582 and 0.5811 and 0.497. Further, in assay [2] (Ab 50mM + Acetyl CoA 100mM, sFig 6a), the “N-AS generation in human microglia” value was 10.5625 and 12.1817 and 11.3721 and 11.7769. Further, the “N-AS generation, acetyl-S565 COX2 and SPM secretion, in words” value in assay [2] (Aβ-treated human microglia + acetyl-CoA) is listed as “restored”.
In the case of “Ab: Aβ 1–42 (Invitrogen, 03112) used to induce an AD environment in cells”, the “N-AS quantification (Fig 3g)” value in assay [1] (Ab, no supplement) is 0.5069 and 0.4708 and 0.3905 and 0.3625 and 0.4347. In addition, the “N-AS quantification (Fig 3a)” value in assay [1] (Ab) is 0.5349 and 0.246 and 0.4789 and 0.3905 and 0.3625 and 0.4347. In addition, the “N-AS generation, in words” value in assay [2] (Aβ-treated human microglia) was “reduction of N-AS generation”.
